Entries after “also recorded” stand apart in the source; their conditions may differ.
System: C57BL/6 mice
Assay: rhPBEF challenge in limited ventilator-induced lung injury model (VILIa, 30 ml/kg)
Type: in vivo, mouse
Protocol: The first VILI model was designed to produce limited lung injury (VILIa, tidal volume 30 ml/kg), thus allowing assessment of potential synergy with rhPBEF challenge. Male C57BL/6J B6 mice were anesthetized with ketamine/acepromazine, intubated and administered rhPBEF (20 μg/mouse) via an intratracheal (IT) route ˜30 min before ventilator placement (room air, tidal volume 30 ml/kg, 65 breaths/minute, 0 cm H2O PEEP) for 4 hr as previously described (Nonas et al., 2007; Moitra et al., 2007). Groups included a spontaneous breathing group (SB), a spontaneous breathing group challenged with rhPBEF (SB-rhPBEF), a high tidal ventilation group (VILIa), and a high tidal ventilation group with rhPBEF challenge (VILIa-rhPBEF) (n=4-6 all groups).
BAL fluid recovered as we previously described was used for multiple assays including total BAL protein, and BAL cell differentials (Peng et al., 2004). Tissue albumin content was assessed as previously described (Nonas et al., 2007). Cytokine levels in BAL fluid (IL-1β, IL-6, KC, MIP2, TNF-α) were analyzed by multiplex assays (Bio-Rad, Hercules, Calif., USA). BAL PBEF levels were assayed by a C-terminal ELISA (Phoenix Pharmaceuticals Inc. Belmont, Calif.) and analyzed using the SoftmaxPRO software (Molecular Devices Corp). (See Supplemental Methods).
We utilized two experimental models of ventilator-induce lung injury in these experiments. Our first approach (VILIa) utilized a VILI protocol with a tidal volume of 30 ml/kg designed to produce limited lung injury in order to allow assessment of potential synergism between delivered PBEF and mechanical ventilation-induced lung injury. Male C57BL/6J mice (8-12 wk old, 24.7±2.0 g) were weighed, anesthetized with ketamine/acepromazine, intubated using a 20 gauge catheter (Medex, Inc, Carlsbad, Calif.) and administered recombinant PBEF (20 μg/mouse in 1.5 μl water per gram body weight or vehicle equal volumes of water) via an intratracheal (IT) route ˜30 min before being placed on mechanical ventilation as we have previously described (Peng et al., 2004). Mice were then connected to Harvard Apparatus ventilator (Boston, Mass.) at room air, tidal volume of 30 ml/kg, 65 breaths/minute, and positive expiratory pressure (PEEP) 0 cm H2O for 4 hr. Groups of mice were randomly allocated to either the spontaneous breathing group (SB) (n=4), the spontaneous breathing challenged with IT rhPBEF group (SB-rhPBEF) (n=6), the high tidal ventilation group (VILIa) (n=6), or high tidal ventilation with rhPBEF group (VILIa-rhPBEF) (n=6). Normal saline (0.2 cc) was given via intraperitoneal injection at the beginning and 2 hours later to all ventilated mice and peak inspiratory pressure was monitored continuously. Temperature was maintained with heat blanket to all mice during experiment.
Mice underwent bronchioalveolar lavage (BAL) of both lungs with Hank's balanced salt solution (1 mL/mouse), and the recovered BAL fluid was used for assays as we have previously described (Peng et al., 2004). Total protein was measured using the Bio-Rad DC Protein Assay (Bio-Rad Laboratories, Hercules, Calif.) (Peng et al., 2004). Protein results were expressed as mg/ml to allow for comparison to other studies. Lavage samples were centrifuged at 500×g on a refrigerated micro centrifuge for 20 min. The supernatant was decanted and aliquot for protein assays. The BAL cells were resuspended in Hank's balanced salt solution and counted using a hemacytometer using standard techniques.
Re-suspended BAL cells from lung lavage were centrifuged using a Shandon Cytospin-2 at 600 RPM for 15 min, fixed by air-drying, and stained with Diff-Quik dye for differential counts (Peng et al., 2004). Stained cell slides were evaluated and differentially counted for each individual animal (lymphocyte, neutrophil or a macrophage).
BAL fluid for cytokine measurements was stored at −80° C. until analysis. […]

rhPBEF: Recombinant human soluble PBEF/visfatin, a 52 kDa protein containing 465 amino acid residues, purchased from PeproTech
BAL IL-1β: 53 ± 4 pg/mL
BAL IL-6: 957 ± 103 pg/mL
BAL KC: 2310 ± 263 pg/mL
BAL MIP-2: 30480 ± 219 pg/mL
BAL TNF-α: 985 ± 293 pg/mL
BAL cytospin (400×) (20 μg rhPBEF): dramatic influx of neutrophils into the alveolar space
histologic assessment of lung tissue (hematoxylin and eosin) (intratracheal rhPBEF 30 min prior to mechanical ventilation for 4 hr): greater alveolar wall thickening, and neutrophil infiltration into the lung interstitium and alveolar space; also recorded: dramatically augmented
